Source: patent publication US20120172359A1 (NOVARTIS AG, priority 2010, published 2012)
Where a name gives a salt, the structure may show the parent alone.

target: Human BACE-1 (Homo sapiens, UniProt P56817); assay: Test 1: Inhibition of Human BACE-1; type: biochemical; details: Test 1; recombinant BACE-1 (extracellular domain), acetate buffer pH 4.5, 1 hour with test compound at room temperature, fluorescence-quenched peptide substrate; read-out: Bace IC50
Sequence (P56817 46-457 limits assumed): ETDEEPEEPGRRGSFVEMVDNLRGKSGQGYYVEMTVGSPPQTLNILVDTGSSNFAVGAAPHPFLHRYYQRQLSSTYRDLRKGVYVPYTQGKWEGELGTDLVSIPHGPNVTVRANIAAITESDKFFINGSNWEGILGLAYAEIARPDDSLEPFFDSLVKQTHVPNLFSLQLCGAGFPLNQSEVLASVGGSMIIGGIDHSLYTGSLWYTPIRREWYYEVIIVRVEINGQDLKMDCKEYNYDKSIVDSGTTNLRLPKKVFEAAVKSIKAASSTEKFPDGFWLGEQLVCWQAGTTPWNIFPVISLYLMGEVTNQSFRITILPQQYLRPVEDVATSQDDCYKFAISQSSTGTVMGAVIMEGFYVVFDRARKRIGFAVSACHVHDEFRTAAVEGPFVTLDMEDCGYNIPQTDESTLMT

Row | SMILES | IC50
1 | NC1=N[C@@](c2cc(NC(=O)c3cnc(Cl)cn3)ccc2F)(C(F)F)COC1 [Example 141, 5-Chloro-pyrazine-2-carboxylic acid [3-((R)-5-amino-3-difluoromethyl-3,6-dihydro-2H-[1,4]oxazin-3-yl)-4-fluoro-phenyl]-amide] | 33 nM
2 | Cc1cc(C(=O)Nc2ccc(F)c([C@]3(C(F)F)COCC(N)=N3)c2)n[nH]1 [Example 142, 5-Methyl-1H-pyrazole-3-carboxylic acid [3-((R)-5-amino-3-difluoromethyl-3,6-dihydro-2H-[1,4]oxazin-3-yl)-4-fluoro-phenyl]-amide hydrochloride] | 820 nM
3 | Cc1ccc(C(=O)Nc2ccc(F)c([C@]3(C(F)F)COCC(N)=N3)c2)nc1 [Example 143, 5-Methyl-pyridine-2-carboxylic acid [3-((R)-5-amino-3-difluoromethyl-3,6-dihydro-2H-[1,4]oxazin-3-yl)-4-fluoro-phenyl]-amide hydrochloride] | 110 nM
4 | NC1=N[C@@](c2cc(NC(=O)c3cnc(O)cn3)ccc2F)(C(F)F)COC1 [Example 145, 5-Hydroxy-pyrazine-2-carboxylic acid [3-((R)-5-amino-3-difluoromethyl-3,6-dihydro-2H-[1,4]oxazin-3-yl)-4-fluoro-phenyl]-amide hydrochloride] | 340 nM
5 | COc1cnc(C(=O)Nc2ccc(F)c([C@]3(C(F)F)COCC(N)=N3)c2)cn1 [Example 146, 5-Methoxy-pyrazine-2-carboxylic acid [3-((R)-5-amino-3-difluoromethyl-3,6-dihydro-2H-[1,4]oxazin-3-yl)-4-fluoro-phenyl]-amide hydrochloride] | 100 nM
6 | Cc1nc(C(=O)Nc2ccc(F)c([C@]3(C(F)F)COCC(N)=N3)c2)cs1 [Example 148, 2-Methyl-thiazole-4-carboxylic acid [3-((R)-5-amino-3-difluoromethyl-3,6-dihydro-2H-[1,4]oxazin-3-yl)-4-fluoro-phenyl]-amide hydrochloride] | 940 nM
7 | Cc1cnc(C(=O)Nc2ccc(F)c([C@]3(C(F)F)COCC(N)=N3)c2)s1 [Example 149, 5-Methyl-thiazole-2-carboxylic acid [3-((R)-5-amino-3-difluoromethyl-3,6-dihydro-2H-[1,4]oxazin-3-yl)-4-fluoro-phenyl]-amide hydrochloride] | 700 nM
8 | Cn1ccc(C(=O)Nc2ccc(F)c([C@]3(C(F)F)COCC(N)=N3)c2)n1 [Example 150, 1-Methyl-1H-pyrazole-3-carboxylic acid [3-((R)-5-amino-3-difluoromethyl-3,6-dihydro-2H-[1,4]oxazin-3-yl)-4-fluoro-phenyl]-amide hydrochloride] | 290 nM
9 | Cn1cc([N+](=O)[O-])c(C(=O)Nc2ccc(F)c([C@]3(C(F)F)COCC(N)=N3)c2)n1 [Example 151, 1-Methyl-4-nitro-1H-pyrazole-3-carboxylic acid [3-((R)-5-amino-3-difluoromethyl-3,6-dihydro-2H-[1,4]oxazin-3-yl)-4-fluoro-phenyl]-amide hydrochloride] | 1200 nM
10 | C[C@@]1(c2cc(NC(=O)c3ncc(Cl)cc3N)ccc2F)CO[C@@](C)(C(F)(F)F)C(N)=N1 [Example 153, 3-Amino-5-chloro-pyridine-2-carboxylic acid [3-((3R,6R)-5-amino-3,6-dimethyl-6-trifluoro-methyl-3,6-dihydro-2H-[1,4]oxazin-3-yl)-4-fluoro-phenyl]amide] | 8 nM
11 | CC1(c2cc(NC(=O)c3ncc(C(F)(F)F)cc3Cl)ccc2F)N=C(N)COCC1(F)F (stereo not shown) [Example 154, 3-Chloro-5-trifluoromethyl-pyridine-2-carboxylic acid [3-(3-amino-6,6-difluoro-5-methyl-2,5,6,7-tetrahydro-[1,4]oxazepin-5-yl)-4-fluoro-phenyl]-amide] | 120 nM
12 | COc1cc(Br)cnc1C(=O)Nc1ccc(F)c(C2(C)N=C(N)COCC2(F)F)c1 (stereo not shown) [Example 155, 5-Bromo-3-methoxy-pyridine-2-carboxylic acid [3-(3-amino-6,6-difluoro-5-methyl-2,5,6,7-tetrahydro-[1,4]oxazepin-5-yl)-4 fluoro-phenyl]-amide] | 180 nM
13 | CC1(c2cc(NC(=O)c3ccc(C#N)cn3)ccc2F)N=C(N)COCC1(F)F (stereo not shown) [Example 156, 5-Cyano-pyridine-2-carboxylic acid [3-(3-amino-6,6-difluoro-5 methyl-2,5,6,7-tetrahydro[1,4]oxazepin-5-yl)-4 fluoro-phenyl]-amide] | 34 nM
14 | NC1=N[C@@](c2cc(NC(=O)c3cc4cncnc4[nH]3)ccc2F)(C(F)F)COC1 [Example 157, 7H-Pyrrolo[2,3-d]pyrimidine-6-carboxylic acid [3-((R)-5-amino-3-difluoromethyl-3,6-dihydro-2H-[1,4]oxazin-3-yl)-4-fluoro-phenyl]-amide] | 5200 nM
15 | COCCOc1cnc(C(=O)Nc2ccc(F)c([C@]3(C(F)F)COCC(N)=N3)c2)c(N)n1 [Example 158, 3-Amino-5-(2-methoxy-ethoxy)-pyrazine-2-carboxylic acid [3-((R)-5-amino-3-difluoromethyl-3,6-dihydro-2H-[1,4]oxazin-3-yl)-4-fluoro-phenyl]amide] | 18 nM
16 | CCc1ccc(C(=O)Nc2ccc(F)c([C@]3(C(F)F)COCC(N)=N3)c2)nc1 [Example 159] | 130 nM
17 | NC1=N[C@@](c2cc(NC(=O)c3ncc(Cl)cc3N)ccc2F)(C(F)F)COC1 [Example 160, 3-Amino-5-chloro-pyridine-2-carboxylic acid [3-((R)-5-amino-3-difluoromethyl-3,6-dihydro-2H-[1,4]oxazin-3-yl)-4-fluoro-phenyl]-amide] | 12 nM
18 | COc1cnc(C(=O)Nc2ccc(F)c([C@]3(C(F)F)COCC(N)=N3)c2)c(Cl)c1 [Example 161, 3-Chloro-5-methoxy-pyridine-2-carboxylic acid [3-((R)-5-amino-3-difluoromethyl-3,6-dihydro-2H-[1,4]oxazin-3-yl)-4-fluoro-phenyl]-amide] | 66 nM
19 | NC1=N[C@@](c2cc(NC(=O)c3ccc(=O)[nH]c3)ccc2F)(C(F)F)COC1 [Example 162, 6-Oxo-1,6-dihydro-pyridine-3-carboxylic acid [3-((R)-5-amino-3-difluoromethyl-3,6-dihydro-2H-[1,4]oxazin-3-yl)-4-fluoro-phenyl]-amide] | 8500 nM
20 | NC1=N[C@@](c2cc(NC(=O)c3cc4cccn4cn3)ccc2F)(C(F)F)COC1 [Example 163, Pyrrolo[1,2-c]pyrimidine-3-carboxylic acid [3-((R)-5-amino-3-difluoromethyl-3,6-dihydro-2H-[1,4]oxazin-3-yl)-4-fluoro-phenyl]-amide] | 680 nM
21 | NC1=N[C@@](c2cc(NC(=O)c3ncc(Br)cc3N)ccc2F)(C(F)F)COC1 [Example 165, 3-Amino-5-bromo-pyridine-2-carboxylic acid [3-((R)-5-amino-3-difluoromethyl-3,6-dihydro-2H-[1,4]oxazin-3-yl)-4-fluoro-phenyl]-amide] | 8 nM
22 | CCn1ccnc1C(=O)Nc1ccc(F)c([C@]2(C(F)F)COCC(N)=N2)c1 [Example 166, 1-Ethyl-1H-imidazole-2-carboxylic acid [3-((R)-5-amino-3-difluoromethyl-3,6-dihydro-2H-[1,4]oxazin-3-yl)-4-fluoro-phenyl]amide] | 1200 nM
